Results taken from the SangsterLogP compilation.

Settings: pH 7.4

SMILES	logD
CCNC(=O)c1cc2c(-n3ccc(C(F)(F)F)n3)c(-c3cc(-c4n[nH]c(=O)o4)cnc3OC)cnc2[nH]1	2.91
Cc1nn(C)c2cc(N3CCN(C(=O)[C@@H]4CCCC[C@H]4C(=O)NC4(C#N)CC4)[C@H](C)C3)ccc12	2.7
COc1cc(N2CCN(C(=O)[C@@H]3CCCC[C@H]3C(=O)NC3(C#N)CC3)[C@H](C)C2)ccc1C1CC1	3.49
C[C@@H](Oc1ccc(S(C)(=O)=O)cc1C(=O)N1CCN(c2ncc(C(F)(F)F)cc2F)CC1)C(F)(F)F	3.49
N#CC1(NC(=O)[C@@H]2CCCC[C@H]2C(=O)N2CCc3[nH]c4cccc(F)c4c3C2)CC1	3.2
Cc1cccc2c3c([nH]c12)CCN(C(=O)[C@@H]1CCCC[C@H]1C(=O)NC1(C#N)CC1)C3	2.99
CS(=O)(=O)c1ccc2nc(N3CCN(C(=O)[C@@H]4CCCC[C@H]4C(=O)NC4(C#N)CC4)CC3)sc2c1	1.49
CC(C)(C)OC(=O)N1CCN(c2cnc(OCc3ccc(S(C)(=O)=O)cc3)cn2)CC1	3.4
C[C@@H]1CN(c2ncc(F)cn2)CCN1c1ncc(OCc2ccncc2C#N)cn1	3.4
C[C@@H]1CN(c2nc(C(F)(F)F)no2)CCN1c1ncc(OCc2ccncc2C#N)cn1	3.1
COc1ccc(N2CCN(C(=O)[C@@H]3CCCC[C@H]3C(=O)NC3(C#N)CC3)[C@H](C)C2)nc1OC	2.3
C[C@H]1O[C@@H](n2cnc3c(N)nc(OC4CCCC4)nc32)[C@H](O)[C@H]1Cl	3.18
CC(C)(C)OC(=O)N1CCN(c2ncc(OCc3ccncc3)cn2)CC1	3.4
N#CC1(NC(=O)[C@@H]2CCCC[C@H]2C(=O)N2CCN(c3nc4c(s3)COCC4)CC2)CC1	1.42
Cc1nc2nc(NC(=O)c3ccc(F)cc3)[nH]n2c(=O)c1Cc1ccccc1	2.2
CS(=O)(=O)c1ccc2c3c([nH]c2c1)CCN(C(=O)[C@@H]1CCCC[C@H]1C(=O)NC1(C#N)CC1)C3	1.5
C[C@@H]1CN(c2noc(C3CC3)n2)CCN1c1ncc(OCc2ccncc2C#N)cn1	3.1
C[C@H]1CN(C(=O)OC(C)(C)C)CCN1c1ncc(OCc2ccc(S(C)(=O)=O)cc2)cn1	3.5
COC1/C=C\OC2(C)Oc3c(C)c(O)c4c(c3C2=O)C(=O)C=C(NC(=O)/C(C)=C\C=C/C(C)C(O)C(C)C(O)C(C)C(OC(C)=O)C1C)C4=O (stereo not drawn)	0.7
CN(C(=O)Cc1ccc(-n2cnnn2)cc1)[C@H]1CCN(Cc2ccc(C(F)(F)F)cc2)C[C@H]1F	3.3
CC(C)(C)OC(=O)N1CCN(c2ncc(OCc3ccncc3F)cn2)CC1	3.6
N#CC1(NC(=O)[C@@H]2CCCC[C@H]2C(=O)N2CCN(c3nc4cnccc4s3)CC2)CC1	1.66
C[C@@H]1CN(c2ccccc2)CCN1C(=O)[C@@H]1CCCC[C@H]1C(=O)NC1(C#N)CC1	2.35
CS(=O)(=O)Cc1cc(N2CCOCC2)nc(-c2ccc3[nH]ccc3c2)n1	2.06

SMILES	logD
COc1c/c(=C2\C=c3ccccc3=N2)[nH]/c1=C\c1[nH]c(C)cc1C	2.55
Nc1ccccc1NC(=O)c1ccc(N2CCOCC2)cc1	1.2
CC(C)(C#N)c1cnc(N2CCN(C(=O)[C@@H]3CCCC[C@H]3C(=O)NC3(C#N)CC3)CC2)s1	1.9
N#CC1(NC(=O)[C@@H]2CCCC[C@H]2C(=O)N2CCc3[nH]c4c(OC(F)(F)F)cccc4c3C2)CC1	4.01
CCn1c(=O)c2c(O)cc(=O)oc2c2ccccc21	1.13
COc1ccc(N(C(=O)c2occc2Cl)C(C(=O)NC[C@@H](C)O)c2ccccc2F)c(OC)c1 (stereo partly drawn)	2.18
O=C(Nc1cccc2cccnc12)C1CCC(N2C(=O)[C@@H]3[C@@H]4CC[C@@H](C4)[C@@H]3C2=O)CC1 (stereo partly drawn)	3.94
CC(C)(C)OC(=O)N1CCC(c2ncc(OCc3ccc(S(C)(=O)=O)cc3)cn2)CC1	2.8
CC(=O)N1CCN(CCOc2ccc(C3(O)CCN(c4ccc5nnc(C(F)(F)F)n5n4)CC3)cc2)CC1	2.2
COc1ccc(N2CCN(C(=O)[C@@H]3CCCC[C@H]3C(=O)NC3(C#N)CC3)CC2)cc1OC	1.4
N#CC1(NC(=O)[C@@H]2CCCC[C@H]2C(=O)N2CCN(c3nc4ncccc4s3)CC2)CC1	1.4
CCCSc1ncccc1C(=O)NC1CCCCC1	3.24
N#CC1(NC(=O)[C@@H]2CCCC[C@H]2C(=O)N2CCN(c3nc(C(F)(F)F)cs3)CC2)CC1	2.4
Cc1cc(C(C)Nc2ccccc2)c2nc(N3CCOCC3)cc(=O)n2c1 (stereo not drawn)	3.6
N#CC1(NC(=O)[C@@H]2CCCC[C@H]2C(=O)N2CCc3[nH]c4cc(F)ccc4c3C2)CC1	2.99
CCCSc1ncccc1C(=O)NC1[C@@H]2CC3C[C@H]1CC(O)(C3)C2 (stereo partly drawn)	2.27
N#CC1(NC(=O)[C@@H]2CCCC[C@H]2C(=O)N2CCc3[nH]c4ccc(Cl)cc4c3C2)CC1	3.65
Cc1ncc(-c2ccnc(Nc3ccc(N4CCN(S(C)(=O)=O)CC4)cc3)n2)n1C(C)C	2.57
CS(=O)(=O)Cc1cc(N2CCOCC2)nc(-c2ccccc2)n1	1.94
N#CC1(NC(=O)[C@@H]2CCCC[C@H]2C(=O)N2CCc3[nH]c4ccc(F)cc4c3C2)CC1	3
N#CC1(NC(=O)[C@@H]2CCCC[C@H]2C(=O)N2CCc3oc4ccccc4c3C2)CC1	3.01
CCCN(c1cccnc1)P(=O)(c1ccccc1)c1ccccc1	2.6
N#CC1(NC(=O)[C@@H]2CCCC[C@H]2C(=O)N2CCN(c3nc4ccncc4s3)CC2)CC1	1.6
Cc1nn(C)c2ccc(N3CCN(C(=O)[C@@H]4CCCC[C@H]4C(=O)NC4(C#N)CC4)[C@H](C)C3)cc12	2.8

SMILES	logD
C[C@H](C#N)NC(=O)[C@@H]1CCCC[C@H]1C(=O)N1CCc2[nH]c3ccc(F)cc3c2C1	3.1
N#CC1(NC(=O)[C@@H]2CCCC[C@H]2C(=O)N2CCc3[nH]c4c(C(F)(F)F)cccc4c3C2)CC1	3.75
O=c1cc(-c2ccccc2)nc2cc[nH]n12	1.3
CS(=O)(=O)c1cccc(Nc2nccc(Nc3c(Cl)ccc4c3OCO4)n2)c1	3.13
N#CC1(NC(=O)[C@@H]2CCCC[C@H]2C(=O)N2CCN(c3nc(-c4ccccc4)cs3)CC2)CC1	3.5
COc1ccc(N(C(=O)c2ccccc2)C(C(=O)NC2CCCC2)c2ccccc2F)c(OC)c1 (stereo not drawn)	3.86
CS(=O)(=O)Cc1cc(N2CCOCC2)nc(-c2cccc3[nH]ccc23)n1	1.7
N#CC1(NC(=O)[C@@H]2CCCC[C@H]2C(=O)N2CCN(c3nccs3)CC2)CC1	1.3
COc1ccc(N2CCN(C(=O)[C@@H]3CCCC[C@H]3C(=O)NCC#N)CC2)cc1	1.6
CC(C)(C)OC(=O)N1C[C@@H]2CC[C@H]1CN2c1ncc(OCc2ccc(S(C)(=O)=O)cc2)cn1	3.4
C[C@@H]1COCCN1c1cc(C2(S(C)(=O)=O)CC2)nc(-c2cccc3[nH]ccc23)n1	2.7
COc1cc(OC)c(S(=O)(=O)N2c3ccccc3CCC2C)cc1NC(=O)Cc1ccnc(F)c1 (stereo not drawn)	2.49
C[C@@H]1CN(C(=O)OC(C)(C)C)CCN1c1ncc(OCC2CCN(S(C)(=O)=O)CC2)cn1	3.5
CCCCN1Cc2c(nc3cc(-c4ccco4)[nH]n3c2=O)C1=O	0.8
Fc1ccc(CN2CCN(C3=Nn4c(nnc4C(F)(F)F)CC3)CC2)cc1	2.8
O=c1cc(O)c2c(=O)n(Cc3ccccc3)c3ccccc3c2o1	1.97
COc1cc(OC)c(S(=O)(=O)N2c3ccccc3CCC2C)cc1NC(C)=O (stereo not drawn)	1.97
CC(C)c1nc(N2CCN(c3ncc(OCc4ccncc4C#N)cn3)[C@H](C)C2)no1	3.3
CC(C)(C)OC(=O)N1CCN(c2ncc(OCc3ccc(S(C)(=O)=O)cc3)nn2)CC1	2.93
Cc1ncc(-c2nc(Nc3ccc(N4CCOCC4)cc3)ncc2F)n1C(C)C	3.01
COc1cc(OC)c(S(=O)(=O)NCc2ccccc2N2CCC(CO)CC2)cc1NC(C)=O	1.03
CS(=O)(=O)C1(c2cc(N3CCOCC3)nc(-c3cccc4[nH]ccc34)n2)CCOCC1	2.4
O=c1cc(O)c2c(=O)n(-c3ccccc3)c3ccccc3c2o1	0.96
CCNC(=O)c1cc2c(-n3ccc(C(F)(F)F)n3)c(-c3cncc(-c4n[nH]c(=O)o4)c3)cnc2[nH]1	1.65

SMILES	logD
CC(C)c1ccc2[nH]c3c(c2c1)CN(C(=O)[C@@H]1CCCC[C@H]1C(=O)NC1(C#N)CC1)CC3	4.1
Cc1nc2nc[nH]n2c(=O)c1CCOC(=O)c1ccccc1F	0.99
NS(=O)(=O)c1ccc(Nc2nccc(-c3cnc4ccccn34)n2)cc1	2.7
CS(=O)(=O)Cc1cc(N2CCOCC2)nc(-c2ccc(NS(C)(=O)=O)cc2)n1	0.85
N#Cc1cccnc1-c1ccc(C(=O)Nc2ccccc2N)cc1	1.58
CC(=O)NC1CN(c2ccc(Nc3ncc(F)c(-c4cnc(C)n4C(C)C)n3)cc2)C1	2.76
COc1cc(OC)c(S(=O)(=O)N2c3ccccc3CCC2C)cc1NC(=O)CSc1ccncc1 (stereo not drawn)	2.82
Nc1ccccc1NC(=O)c1ccc(-c2ncc(CN3CCC3)cc2F)cc1	1.69
N#Cc1cnc(N2CCN(C(=O)[C@@H]3CCCC[C@H]3C(=O)NC3(C#N)CC3)CC2)s1	1.2
Cc1cc(COc2cnc(N3CCN(C(=O)OC(C)(C)C)CC3)nc2)ccn1	3.7
CS(=O)(=O)c1ccc(N2CCN(C(=O)[C@@H]3CCCC[C@H]3C(=O)NCC#N)CC2)cc1	0.67
COCc1ccoc1C(=O)N(c1ccc(OC)cc1OC)C(C(=O)NC[C@@H](C)O)c1ccccc1F (stereo partly drawn)	1.98
COc1ccc(N2CCN(C(=O)[C@@H]3CCCC[C@H]3C(=O)NC3(C#N)CC3)[C@H](C)C2)cc1OC	1.85
COc1ccc(N2CCN(C(=O)[C@@H]3CCCC[C@H]3C(=O)NC3(C#N)CC3)CC2)cc1	1.74
CCOc1cccc2c3c([nH]c12)CCN(C(=O)[C@@H]1CCCC[C@H]1C(=O)NC1(C#N)CC1)C3	3.1
C[C@H]1O[C@@H](n2cnc3c(N)nc(OCC4CC45CC5)nc32)[C@H](O)[C@@H]1O (stereo partly drawn)	1.78
O=S(=O)(Cc1cc(N2CCOCC2)nc(-c2ccccn2)n1)c1ccccc1	1.34
COc1ccc(N(C(=O)c2ccoc2Cl)C(C(=O)NC[C@@H](C)O)c2ccccc2F)c(OC)c1 (stereo partly drawn)	2.36
N#CC1(NC(=O)[C@@H]2CCCC[C@H]2C(=O)N2CCc3[nH]c4c(F)cccc4c3C2)CC1	3.03
Cc1cnccc1COc1cnc(N2CCN(C(=O)OC(C)(C)C)CC2)nc1	3.8
C[C@@H](c1ncncc1F)[C@](O)(Cn1cncn1)c1ccc(F)cc1F	1.7
